Experiments:
[1] = tested on: Echinochloa oryzoides (Ard.) Fritsch.; experiment: Preemergence weed control under flooded paddy conditions, ECHORC (Watergrass (Calif.)); assay type: in vivo; settings: preemergence, flooded paddy; on herbicidal effect rating, ECHORC: meaning of each grade not given here
Cyperus iria = experiment: Preemergence weed control under flooded paddy conditions, CYPIR (Rice Flatsedge); assay type: in vivo; settings: preemergence, flooded paddy; on herbicidal effect rating, CYPIR: meaning of each grade not given here
[2] = tested on: Cyperus serotinus, Rottb.; experiment: Preemergence weed control under flooded paddy conditions, CYPSE (Flatsedge); assay type: in vivo; settings: preemergence; on herbicidal effect rating, CYPSE: meaning of each grade not given here
[3] = tested on: Monochoria vaginalis, Presl.; experiment: Preemergence weed control under flooded paddy conditions, MOOVA (Monochoria); assay type: in vivo; settings: preemergence, flooded paddy; on herbicidal effect rating, MOOVA: meaning of each grade not given here
Sagittaria pygmaea, L. = experiment: Preemergence weed control under flooded paddy conditions, SAGPY (Arrowhead (Pygmaea)); assay type: in vivo; settings: preemergence, flooded paddy; on herbicidal effect rating, SAGPY: meaning of each grade not given here
[4] = tested on: Oryza sativa, (L.) Tebonnet; experiment: Rice tolerance to post-transplant applications under flooded paddy conditions (Example 187), ORYSAT (Rice, Tebonnet); on herbicidal effect rating ORYSAT: meaning of each grade not given here
[5] = Rate 0.0320 kg/ha, rated three to four weeks after treatment
[6] = Rate 0.0620 kg/ha, rated three to four weeks after treatment
[7] = Rate 0.1250 kg/ha, rated three to four weeks after treatment
[8] = Rate 0.2500 kg/ha, rated three to four weeks after treatment
[9] = 0.0320 kg/ha, rated three to four weeks after treatment
[10] = 0.0620 kg/ha, rated three to four weeks after treatment
[11] = 0.1250 kg/ha, rated three to four weeks after treatment
[12] = 0.2500 kg/ha, rated three to four weeks after treatment
[13] = Rate 0.0320 kg/ha, rated 3-4 weeks after treatment
[14] = Rate 0.0620 kg/ha, rated 3-4 weeks after treatment
[15] = Rate 0.1250 kg/ha, rated 3-4 weeks after treatment
[16] = Rate 0.2500 kg/ha, rated 3-4 weeks after treatment
[17] = Rate 0.5000 kg/ha, rated 3-4 weeks after treatment

SMILES: Cn1c(C(F)(F)F)cc(=O)n(-c2ccc3snc(COCc4ccc(Cl)cc4Cl)c3c2)c1=O [Example 585, 2,4(1H,3H)-Pyrimidinedione, 3-{3-{[(2,4-dichlorobenzyl)oxy]methyl}-1,2-benzisothiazol-5-yl}-1-methyl-6-(trifluoromethyl)-]
- herbicidal effect rating, ECHORC [1, 5]: 5.0
- herbicidal effect rating, ECHORC [1, 6]: 8.5
- herbicidal effect rating, ECHORC [1, 7]: 8.5
- herbicidal effect rating, ECHORC [1, 8]: 9.0
- herbicidal effect rating, CYPIR (Cyperus iria; [5]): 2.5
- herbicidal effect rating, CYPIR (Cyperus iria; [6]): 8.5
- herbicidal effect rating, CYPIR (Cyperus iria; [7]): 9.0
- herbicidal effect rating, CYPIR (Cyperus iria; [8]): 9.0
- herbicidal effect rating, CYPSE [2, 5]: 0.0
- herbicidal effect rating, CYPSE [2, 6]: 0.0
- herbicidal effect rating, CYPSE [2, 7]: 0.0
- herbicidal effect rating, CYPSE [2, 8]: 3.0
- herbicidal effect rating, MOOVA [3, 5]: 3.5
- herbicidal effect rating, MOOVA [3, 6]: 3.5
- herbicidal effect rating, MOOVA [3, 7]: 4.5
- herbicidal effect rating, MOOVA [3, 8]: 9.0
- herbicidal effect rating, SAGPY (Sagittaria pygmaea, L.; [5]): 0.0
- herbicidal effect rating, SAGPY (Sagittaria pygmaea, L.; [6]): 1.5
- herbicidal effect rating, SAGPY (Sagittaria pygmaea, L.; [7]): 2.0
- herbicidal effect rating, SAGPY (Sagittaria pygmaea, L.; [8]): 2.5
- herbicidal effect rating ORYSAT [4, 5]: 1.0
- herbicidal effect rating ORYSAT [4, 6]: 1.5
- herbicidal effect rating ORYSAT [4, 7]: 1.5
- herbicidal effect rating ORYSAT [4, 8]: 1.5

SMILES: CCCCCCCCCCCCS(=O)(=O)NC(=O)c1nsc2ccc(-n3c(=O)cc(C(F)(F)F)n(C)c3=O)cc12 [Example 358, 1,2-Benzisothiazole-3-carboxamide, 5-[3,6-dihydro-3-methyl-2,6-dioxo-4-(trifluoromethyl)-1(2H)-pyrimidinyl]-N-(dodecylsulfonyl)-]
- herbicidal effect rating, ECHORC [1, 5]: 4.0
- herbicidal effect rating, ECHORC [1, 6]: 5.0
- herbicidal effect rating, ECHORC [1, 7]: 5.0
- herbicidal effect rating, ECHORC [1, 8]: 5.0
- herbicidal effect rating, CYPIR (Cyperus iria; [5]): 0.0
- herbicidal effect rating, CYPIR (Cyperus iria; [6]): 0.0
- herbicidal effect rating, CYPIR (Cyperus iria; [7]): 0.0
- herbicidal effect rating, CYPIR (Cyperus iria; [8]): 7.0
- herbicidal effect rating, CYPSE [2, 5]: 0.0
- herbicidal effect rating, CYPSE [2, 6]: 0.0
- herbicidal effect rating, CYPSE [2, 7]: 0.0
- herbicidal effect rating, CYPSE [2, 8]: 0.0
- herbicidal effect rating, MOOVA [3, 5]: 9.0
- herbicidal effect rating, MOOVA [3, 6]: 9.0
- herbicidal effect rating, MOOVA [3, 7]: 9.0
- herbicidal effect rating, MOOVA [3, 8]: 9.0
- herbicidal effect rating, SAGPY (Sagittaria pygmaea, L.; [5]): 5.0
- herbicidal effect rating, SAGPY (Sagittaria pygmaea, L.; [6]): 5.0
- herbicidal effect rating, SAGPY (Sagittaria pygmaea, L.; [7]): 6.0
- herbicidal effect rating, SAGPY (Sagittaria pygmaea, L.; [8]): 6.0
- herbicidal effect rating ORYSAT [4, 5]: 2.0
- herbicidal effect rating ORYSAT [4, 6]: 3.0
- herbicidal effect rating ORYSAT [4, 7]: 3.0
- herbicidal effect rating ORYSAT [4, 8]: 3.0

SMILES: Cn1c(C(F)(F)F)cc(=O)n(-c2ccc3snc(COCOCc4ccccc4)c3c2)c1=O [Example 461, 2,4(1H,3H)-Pyrimidinedione, 3-{3-{[(benzyloxy)-methoxy]methyl}-1,2-benzisothiazol-5-yl}-1-methyl-6-(trifluoromethyl)-]
- ECHORC herbicidal rating [1, 9]: 9.0
- ECHORC herbicidal rating [1, 10]: 9.0
- ECHORC herbicidal rating [1, 11]: 9.0
- ECHORC herbicidal rating [1, 12]: 9.0
- CYPIR herbicidal rating (Cyperus iria; [9]): 6.0
- CYPIR herbicidal rating (Cyperus iria; [10]): 9.0
- CYPIR herbicidal rating (Cyperus iria; [11]): 9.0
- CYPIR herbicidal rating (Cyperus iria; [12]): 9.0
- CYPSE herbicidal rating [2, 9]: 0.0
- CYPSE herbicidal rating [2, 12]: 7.0
- MOOVA herbicidal rating [3, 9]: 7.0
- MOOVA herbicidal rating [3, 10]: 7.0
- MOOVA herbicidal rating [3, 11]: 9.0
- MOOVA herbicidal rating [3, 12]: 9.0
- SAGPY herbicidal rating (Sagittaria pygmaea, L.; [9]): 2.0
- SAGPY herbicidal rating (Sagittaria pygmaea, L.; [10]): 3.0
- SAGPY herbicidal rating (Sagittaria pygmaea, L.; [11]): 4.0
- SAGPY herbicidal rating (Sagittaria pygmaea, L.; [12]): 6.0
- ORYSAT herbicidal rating (rice tolerance) [4, 9]: 5.0
- ORYSAT herbicidal rating (rice tolerance) [4, 10]: 5.0
- ORYSAT herbicidal rating (rice tolerance) [4, 11]: 5.0
- ORYSAT herbicidal rating (rice tolerance) [4, 12]: 6.0

SMILES: CN(C(=O)c1nsc2ccc(-n3c(=O)cc(C(F)(F)F)n(C)c3=O)cc12)S(=O)(=O)Cc1ccccc1 [Example 494, 1,2-Benzisothiazole-3-carboxamide, N-(benzylsulfonyl)-5-[3,6-dihydro-3-methyl-2,6-dioxo-4-(trifluoromethyl)-1(2H)-pyrimidinyl]-N-methyl-]
- ECHORC herbicidal rating [1, 9]: 0.0
- ECHORC herbicidal rating [1, 10]: 2.0
- ECHORC herbicidal rating [1, 11]: 3.0
- ECHORC herbicidal rating [1, 12]: 3.0
- CYPIR herbicidal rating (Cyperus iria; [9]): 3.0
- CYPIR herbicidal rating (Cyperus iria; [10]): 4.0
- CYPIR herbicidal rating (Cyperus iria; [11]): 5.0
- CYPIR herbicidal rating (Cyperus iria; [12]): 5.0
- CYPSE herbicidal rating [2, 11]: 0.0
- CYPSE herbicidal rating [2, 12]: 3.0
- MOOVA herbicidal rating [3, 9]: 4.0
- MOOVA herbicidal rating [3, 10]: 4.0
- MOOVA herbicidal rating [3, 11]: 5.0
- MOOVA herbicidal rating [3, 12]: 6.0
- SAGPY herbicidal rating (Sagittaria pygmaea, L.; [9]): 0.0
- SAGPY herbicidal rating (Sagittaria pygmaea, L.; [10]): 0.0
- SAGPY herbicidal rating (Sagittaria pygmaea, L.; [11]): 0.0
- SAGPY herbicidal rating (Sagittaria pygmaea, L.; [12]): 3.0
- ORYSAT herbicidal rating (rice tolerance) [4, 9]: 0.0
- ORYSAT herbicidal rating (rice tolerance) [4, 10]: 0.0
- ORYSAT herbicidal rating (rice tolerance) [4, 11]: 0.0
- ORYSAT herbicidal rating (rice tolerance) [4, 12]: 0.0

SMILES: Cc1ccc(OC(C)C(=O)c2ccc(C)c(C)c2)c(-c2nsc3ccc(-n4c(=O)cc(C(F)(F)F)n(C)c4=O)cc23)c1 (stereo not shown) [Example 542, 2,4(1H,3H)-Pyrimidinedione, 3-{3-{6-[1-(3,4-dimethylbenzoyl)ethoxy]-m-tolyl}-1,2-benzisothiazol-5-yl}-1-methyl-6-(trifluoromethyl)-]
- herbicidal effect rating, ECHORC [1, 13]: 1.7
- herbicidal effect rating, ECHORC [1, 14]: 2.7
- herbicidal effect rating, ECHORC [1, 15]: 4.3
- herbicidal effect rating, ECHORC [1, 16]: 8.0
- herbicidal effect rating, ECHORC [1, 17]: 9.0
- herbicidal effect rating, CYPIR (Cyperus iria; [13]): 0.0
- herbicidal effect rating, CYPIR (Cyperus iria; [14]): 0.0
- herbicidal effect rating, CYPIR (Cyperus iria; [15]): 2.0
- herbicidal effect rating, CYPIR (Cyperus iria; [16]): 4.0
- herbicidal effect rating, CYPIR (Cyperus iria; [17]): 9.0
- herbicidal effect rating, CYPSE [2, 13]: 0.0
- herbicidal effect rating, CYPSE [2, 14]: 0.0
- herbicidal effect rating, CYPSE [2, 15]: 0.0
- herbicidal effect rating, CYPSE [2, 17]: 0.0
- herbicidal effect rating, MOOVA [3, 13]: 7.0
- herbicidal effect rating, MOOVA [3, 14]: 9.0
- herbicidal effect rating, MOOVA [3, 15]: 9.0
- herbicidal effect rating, MOOVA [3, 16]: 9.0
- herbicidal effect rating, MOOVA [3, 17]: 9.0
- herbicidal effect rating, SAGPY (Sagittaria pygmaea, L.; [13]): 0.0
- herbicidal effect rating, SAGPY (Sagittaria pygmaea, L.; [14]): 0.0
- herbicidal effect rating, SAGPY (Sagittaria pygmaea, L.; [15]): 0.0
- herbicidal effect rating, SAGPY (Sagittaria pygmaea, L.; [16]): 0.0
- herbicidal effect rating, SAGPY (Sagittaria pygmaea, L.; [17]): 9.0
- herbicidal effect rating ORYSAT [4, 13]: 0.0
- herbicidal effect rating ORYSAT [4, 14]: 0.0
- herbicidal effect rating ORYSAT [4, 15]: 0.0
- herbicidal effect rating ORYSAT [4, 16]: 0.0
- herbicidal effect rating ORYSAT [4, 17]: 2.0
